“And” between values parts separate entries of the source, which are not always exact repeats. Equal values may be shown once. Ends that are not written are not given here.
Assays:
[1] = rat plasma (frozen blank plasma, thawed); conditions: 37° C., up to 48 hours
[2] = mouse plasma (frozen blank plasma, thawed); conditions: 37° C., up to 48 hours
[3] = human plasma (frozen blank plasma, thawed); conditions: 37° C., up to 48 hours
Human GlucR = target: T1, Human GlucR (Homo sapiens, UniProt P47871); test: cAMP activity assay in assay medium (assay 1); type: cell-based; conditions: assay medium; Table 4; read-out: hGlucR EC50
T1 construct: expressed in transfected cells
T1 sequence (P47871 26-477): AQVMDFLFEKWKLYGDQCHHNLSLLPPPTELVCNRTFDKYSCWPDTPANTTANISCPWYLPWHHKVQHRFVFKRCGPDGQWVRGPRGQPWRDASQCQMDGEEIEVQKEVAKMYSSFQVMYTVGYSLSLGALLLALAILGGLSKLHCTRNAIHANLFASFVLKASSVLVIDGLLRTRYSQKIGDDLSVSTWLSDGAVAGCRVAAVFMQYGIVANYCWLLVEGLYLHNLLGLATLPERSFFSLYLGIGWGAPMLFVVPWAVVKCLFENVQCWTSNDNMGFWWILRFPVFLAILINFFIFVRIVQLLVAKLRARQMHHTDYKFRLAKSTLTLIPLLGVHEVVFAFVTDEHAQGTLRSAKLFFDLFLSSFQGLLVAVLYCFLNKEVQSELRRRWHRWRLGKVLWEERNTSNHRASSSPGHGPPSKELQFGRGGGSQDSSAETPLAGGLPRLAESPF
From the text: (§1) Biological Activity of Peptides in Cell-Based cAMP Activity Assay (Assay 1):
(§2) All sample dilutions were made in duplicate.

Human GIPr = target: T2, Human GIPr (Homo sapiens, UniProt P48546); test: cAMP activity assay in assay medium (assay 1); type: cell-based; conditions: assay medium; Table 4; read-out: hGIPR EC50
T2 construct: expressed in transfected cells
T2 sequence (P48546 22-466): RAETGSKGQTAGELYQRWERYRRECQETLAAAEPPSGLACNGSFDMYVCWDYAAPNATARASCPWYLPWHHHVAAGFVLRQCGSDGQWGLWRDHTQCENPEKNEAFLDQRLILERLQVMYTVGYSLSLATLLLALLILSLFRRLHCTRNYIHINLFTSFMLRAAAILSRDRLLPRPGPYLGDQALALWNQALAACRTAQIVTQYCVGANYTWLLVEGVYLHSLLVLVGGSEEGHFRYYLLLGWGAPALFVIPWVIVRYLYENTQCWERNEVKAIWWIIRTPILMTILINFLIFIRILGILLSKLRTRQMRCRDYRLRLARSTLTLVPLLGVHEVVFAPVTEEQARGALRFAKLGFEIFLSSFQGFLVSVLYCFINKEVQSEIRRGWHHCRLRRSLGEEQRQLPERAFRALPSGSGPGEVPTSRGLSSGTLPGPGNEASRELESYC
From the text: as §1, §2

Human GLP1R = Human GLP1R (Homo sapiens, UniProt P43220); test: cAMP activity assay in assay medium (assay 1); type: cell-based; set-up: expressed in transfected cells; conditions: assay medium; Table 4; read-out: hGLP1R EC50
Human GLP1R, sequence (P43220 24-463): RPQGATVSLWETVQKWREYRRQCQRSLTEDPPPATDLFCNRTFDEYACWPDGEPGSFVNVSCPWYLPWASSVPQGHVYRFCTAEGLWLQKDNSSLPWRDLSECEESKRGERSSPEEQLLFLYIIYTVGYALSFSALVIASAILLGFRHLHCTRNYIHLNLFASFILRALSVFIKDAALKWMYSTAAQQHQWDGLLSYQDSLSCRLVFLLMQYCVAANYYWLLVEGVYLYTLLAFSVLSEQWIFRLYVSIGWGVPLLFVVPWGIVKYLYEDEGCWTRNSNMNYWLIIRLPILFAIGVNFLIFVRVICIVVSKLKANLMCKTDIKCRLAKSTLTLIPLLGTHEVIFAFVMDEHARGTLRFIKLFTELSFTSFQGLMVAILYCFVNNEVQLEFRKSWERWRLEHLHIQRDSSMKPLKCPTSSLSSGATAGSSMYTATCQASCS
From the text: as §1, §2

**Q.** With “HSQGTFTSDXSEYLDSERARDFVAWLEAGG-amide ×10 = K(gE-palm)” as the compound, how does the fragment found [1] read?
**A.** DPP cleaved product, minor

**Q.** What about the fragment found [2] of the same compound?
**A.** DPP cleaved product, minor

**Q.** Which not cleaved [3] does the source give for “HSQGTFTSDXSRYLDSRSARDFVAWLEAGG-amide ×10 = K(gE-palm)” here?
**A.** 100% stable peptide at 24 h

**Q.** What about the fragment found [1] of the same compound?
**A.** DPP cleaved product

**Q.** What about the fragment found [2] of the same compound?
**A.** DPP cleaved product

**Q.** Which not cleaved [3] does the source give for “HSQGTFTSDYSKXLDSERARDFVAWLVAGG-amide ×13 = K(gE-palm)” here?
**A.** 100% stable peptide at 24 h

**Q.** What about the fragment found [1] of the same compound?
**A.** DPP cleaved product

**Q.** And the fragment found [2]?
**A.** DPP cleaved product and +1 DPP cleaved product

**Q.** For `CCCCCCCCCCCCCCCC(=O)N[C@@H](CCC(=O)NCCCC[C@H](NC(=O)[C@H](CO)NC(=O)[C@H](CC(=O)O)NC(=O)[C@H](CC(C)C)NC(=O)[C@H](Cc1ccc(O)cc1)NC(=O)[C@H](CCC(=O)O)NC(=O)[C@H](CO)NC(=O)[C@H](Cc1ccc(O)cc1)NC(=O)[C@H](CC(=O)O)NC(=O)[C@H](CO)NC(=O)[C@@H](NC(=O)[C@H](Cc1ccccc1)NC(=O)[C@@H](NC(=O)CNC(=O)[C@H](CCC(N)=O)NC(=O)CNC(=O)[C@@H](N)Cc1c[nH]cn1)[C@@H](C)O)[C@@H](C)O)C(=O)N[C@@H](CCCNC(=N)N)C(=O)N[C@@H](C)C(=O)N[C@@H](C)C(=O)N[C@@H](CC(=O)O)C(=O)N[C@@H](Cc1ccccc1)C(=O)N[C@H](C(=O)N[C@@H](C)C(=O)N[C@@H](Cc1c[nH]c2ccccc12)C(=O)N[C@@H](CC(C)C)C(=O)N[C@@H](CCC(=O)O)C(=O)N[C@@H](CCCNC(=N)N)C(=O)NCC(=O)NCC(N)=O)C(C)C)C(=O)O` [g722], which EC50 (Human GlucR) is on record?
**A.** 11.1 nM

**Q.** What about the EC50 (Human GIPr) of the same compound?
**A.** 1670 nM

**Q.** And the EC50 (Human GLP1R)?
**A.** 0.426 nM

**Q.** What does the source list for `CCCCCCCCCCCCCCCC(=O)N[C@@H](CCC(=O)NCCCC[C@H](NC(=O)[C@H](CO)NC(=O)[C@H](CC(=O)O)NC(=O)[C@H](CC(C)C)NC(=O)[C@H](Cc1ccc(O)cc1)NC(=O)[C@H](CCCCN)NC(=O)[C@H](CO)NC(=O)[C@H](Cc1ccc(O)cc1)NC(=O)[C@H](CC(=O)O)NC(=O)[C@H](CO)NC(=O)[C@@H](NC(=O)[C@H](Cc1ccccc1)NC(=O)[C@@H](NC(=O)CNC(=O)[C@H](CCC(N)=O)NC(=O)CNC(=O)[C@@H](N)Cc1c[nH]cn1)[C@@H](C)O)[C@@H](C)O)C(=O)N[C@@H](CCCNC(=N)N)C(=O)N[C@@H](C)C(=O)N[C@@H](CCC(N)=O)C(=O)N[C@@H](CC(=O)O)C(=O)N[C@@H](Cc1ccccc1)C(=O)N[C@H](C(=O)N[C@@H](CCC(N)=O)C(=O)N[C@@H](Cc1c[nH]c2ccccc12)C(=O)N[C@@H](CC(C)C)C(=O)N[C@@H](CCC(=O)O)C(=O)N[C@@H](C)C(=O)NCC(=O)NCC(N)=O)C(C)C)C(=O)O` [g512]?
**A.** EC50 (Human GlucR): 0.0606 nM; EC50 (Human GIPr): 407 nM; EC50 (Human GLP1R): 0.098 nM

**Q.** With `CCCCCCCCCCCCCCCC(=O)N[C@@H](CCC(=O)NCCCC[C@H](NC(=O)[C@H](CO)NC(=O)[C@H](CC(=O)O)NC(=O)[C@H](CC(C)C)NC(=O)[C@H](Cc1ccc(O)cc1)NC(=O)[C@H](CCCCN)NC(=O)[C@H](CO)NC(=O)[C@H](Cc1ccc(O)cc1)NC(=O)[C@H](CC(=O)O)NC(=O)[C@H](CO)NC(=O)[C@@H](NC(=O)[C@H](Cc1ccccc1)NC(=O)[C@@H](NC(=O)CNC(=O)[C@H](CCC(N)=O)NC(=O)C(C)(C)NC(=O)[C@@H](N)Cc1c[nH]cn1)[C@@H](C)O)[C@@H](C)O)C(=O)N[C@@H](CCCNC(=N)N)C(=O)N[C@@H](C)C(=O)N[C@@H](CCC(N)=O)C(=O)N[C@@H](CC(=O)O)C(=O)N[C@@H](Cc1ccccc1)C(=O)N[C@H](C(=O)N[C@@H](CCC(N)=O)C(=O)N[C@@H](Cc1c[nH]c2ccccc12)C(=O)N[C@@H](CC(C)C)C(=O)N[C@H](C(=O)N[C@@H](C)C(=O)NCC(=O)NCC(N)=O)C(C)C)C(C)C)C(=O)O` [g384] as the compound, how does the EC50 (Human GlucR) read?
**A.** 0.0429 nM

**Q.** What about the EC50 (Human GIPr) of the same compound?
**A.** 17 nM

**Q.** And the EC50 (Human GLP1R)?
**A.** 0.0272 nM

**Q.** Which EC50 (Human GlucR) does the source give for “HSQGTFTSDYSKYLDSRRAQDFVQWLVRGGKNNRNNIAK-NH2 [g321]” here?
**A.** 0.0279 nM

**Q.** What about the EC50 (Human GIPr) of the same compound?
**A.** 6.41 nM

**Q.** And the EC50 (Human GLP1R)?
**A.** 0.0272 nM
